From US6900319B2, “Thrombin inhibitors” (Abbott GmbH & Co. KG, priority 1995, dated 2005)

`CC(=O)O.N=C(N)c1ccc(CNC(=O)[C@H]2CCCN2C(=O)C(O)C2CCCCC2)cc1` (stereo partly shown) [Example 3, (D)-2-Cyclohexyl-2-hydroxyacetylproline p-amidinobenzylamide Acetate] showed a melting point of 216 to 218 °C.
